Results published in patent US9643984B2, “Method for the preparation of [1,2,4]-triazolo[4,3-a]pyridines” (AMGEN, INC., priority 2013, dated 2017).

Test: solid-form stability of Compound A (humidity, temperature, air)
Assay type: physicochemical

| Structure (SMILES) | stability to air, moisture and elevated temperature (isolated as salt form (e.g., HCl salt) or monohydrate form) | relative humidity at which the monohydrate crystalline solid reversibly dehydrates (monohydrate crystalline solid isolated in Example 8) [% RH] | temperature up to which the monohydrate form is stable and robust (monohydrate form, solid) |
| --- | --- | --- | --- |
| COCCOc1cnc2ccn([C@H](C)c3nnc4c(F)cc(-c5cnn(C)c5)cn34)c(=O)c2c1 [Compound A, (R)-6-(1-(8-fluoro-6-(1-methyl-1H-pyrazol-4-yl)-[1,2,4]triazolo[4,3-a]pyridin-3-yl)ethyl)-3-(2-methoxyethoxy)-1,6-naphthyridin-5(6H)-one] | stable to air, moisture, and elevated temperature | < 11 |  |
| COCCOc1cnc2ccn([C@H](C)c3nnc4c(F)cc(-c5cnn(C)c5)cn34)c(=O)c2c1 [monohydrate form of Compound A] |  |  | up to 50 °C |
